How the values were obtained:
[1] = tested on: CDK8 (TCF/LEF luciferase reporter in HCT116 cells); experiment: Cell based TCF/LEF reporter assay (HCT116+TCF/LEF luciferase); settings: Homo sapiens, HCT-116, 24 h
From the text: Determine Inhibitor Activity Against CDK8 in Cell Based TCF/LEF Reporter Assay
The colorectal carcinoma cell line HCT116 was stably transduced with lentivirus encoding the TCF/LEF promoter upstream of a luciferase reporter gene (Qiagen) and single cell clones expressing this construct (referred to as HCT116+TCF/LEF) were isolated. HCT116 express endogenous mutant β-catenin^3, resulting in up-regulation of transcription through the TCF/LEF promoter. Expression of the TCF/LEF reporter construct in HCT116 results in constitutive expression of luciferase. Treatment of the cells with inhibitors of components of the β-catenin signaling pathway (such as CDK8) results in decreased expression of luciferase. The assay is performed as follows. The HCT116+TCF/LEF cell line is seeded in a 96 well plate in 50 μL of culture media at 1×10^4 cells/well and incubated at 37° C. overnight. Serial dilutions of compounds (in total volume of 50 μL culture media) are added to the cells and incubated at 37° C. for 24 hours. 4 wells of DMSO treated cells serve as high controls and cells treated with 10 uM of the reference compound CCT251545 (a known CDK8 inhibitor)^4 serve as low controls. The viability of the cells is assayed by the addition of […] reagent (Promega) followed by 30 minute incubation at 37° C. and quantification of the fluorescent signal (Ex400/Em505). The luciferase expression is then assayed by the addition of 25 μL ONE-Glo reagent (Promega) followed by 10 minute incubation at room temperature and quantification of the luminescence signal. The luminescence signal is normalized to the fluorescence signal to correct for any loss in cell viability over the 24 hour compound incubation period. The percentage inhibition at individual concentrations relative to high and low controls is calculated. The data are analyzed by using nonlinear regression to generate IC50 values.

[2] = tested on: CDK8 (phosphorylation of STAT1 at serine 727 in A549 cells); experiment: Cell based Phospho-STAT1 assay (IFNγ-stimulated A549 cells, AlphaLISA); settings: Homo sapiens, A549, A549 cells, phospho-STAT1 after IFNγ stimulation
How it was run: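 A549 cells given serial compound dilutions for 1 h at 37 °C, then stimulated with IFNγ at 10 ng/mL final for 30 min. Lysate STAT1 Ser727 phosphorylation measured by AlphaLISA; % inhibition vs stimulated/unstimulated DMSO controls, IC50 by nonlinear regression.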

Structure (SMILES)	IC50 [1] [nM]	IC50 [2] [nM]
N#CC1CC=C(c2nccn3ncc(-c4ccc(-c5cnn(CC(=O)O)c5)c(F)c4)c23)CC1 (centres unmarked) [Compound P-0116, 2-(4-(4-(4-(4-cyanocyclohex-1-en-1-yl)pyrazolo[1,5-a]pyrazin-3-yl)-2-fluorophenyl)-1H-pyrazol-1-yl)acetic acid]	100 to 1000	100 to 1000
Cc1cc(-c2cnn3ccnc(C4=CCC(C#N)CC4)c23)ccc1-c1cnn(CC(C)(C)O)c1 (centres unmarked) [Compound P-0024, 4-(3-(4-(1-(2-hydroxy-2-methylpropyl)-1H-pyrazol-4-yl)-3 methylphenyl)pyrazolo[1,5-a]pyrazin-4-yl)cyclohex-3-ene-1-carbonitrile]	0.1 to 100	0.1 to 100
N#CCCn1cc(-c2ccc(-c3cnn4ccnc(C5CCC(C#N)CC5)c34)cc2F)cn1 (centres unmarked) [Compound P-0019, (1s,4s)-4-(3-(4-(1-(2-cyanoethyl)-1H-pyrazol-4-yl)-3-fluorophenyl)pyrazolo[1,5-a]pyrazin-4-yl)cyclohexane-1-carbonitrile]	0.1 to 100	0.1 to 100
N#CC1CC=C(c2cccn3ncc(-c4ccc(OCC(O)CN5CCCCC5)cc4)c23)CC1 (centres unmarked) [Compound P-0128, 4-(3-(4-(2-hydroxy-3-(piperidin-1-yl)propoxy)phenyl)pyrazolo[1,5-a]pyridin-4-yl)cyclohex-3-ene-1-carbonitrile]	0.1 to 100	0.1 to 100
N#CC1CC=C(c2cccn3ncc(-c4ccc(OCC(O)CN5CCOCC5)cc4)c23)CC1 (centres unmarked) [Compound P-0178, 4-(3-(4-(2-hydroxy-3-morpholinopropoxy)phenyl)pyrazolo[1,5-a]pyridin-4-yl)cyclohex-3-ene-1-carbonitrile]	0.1 to 100	0.1 to 100
Cc1nc2cc(-c3cnn4ccnc(C5=CCC(C#N)CC5)c34)ccc2[nH]1 (centres unmarked) [Compound P-0056, 4-(3-(2-methyl-1H-benzo[d]imidazol-5-yl)pyrazolo[1,5-a]pyrazin-4-yl)cyclohex-3-ene-1-carbonitrile]	0.1 to 100	0.1 to 100
N#CC1CC=C(c2nccn3ncc(-c4ccc(-c5cnn(CCN6CCCC6)c5)cc4)c23)CC1 (centres unmarked) [Compound P-0049, 4-(3-(4-(1-(2-(pyrrolidin-1-yl)ethyl)-1H-pyrazol-4-yl)phenyl)pyrazolo[1,5-a]pyrazin-4-yl)cyclohex-3-ene-1-carbonitrile]	0.1 to 100	0.1 to 100
N#CC1CC=C(c2nccn3ncc(-c4ccc(OCC5CCCCO5)cc4)c23)CC1 (centres unmarked) [Compound P-0079, 4-(3-(4-((tetrahydro-2H-pyran-2-yl)methoxy)phenyl)pyrazolo[1,5-a]pyrazin-4-yl)cyclohex-3-ene-1-carbonitrile]	0.1 to 100	0.1 to 100
N#CC1CCC(c2nccn3ncc(-c4ccc(-c5cnn(CC6(C#N)CC6)c5)c(F)c4)c23)CC1 (centres unmarked) [Compound P-0018, (1s,4s)-4-(3-(4-(1-((1-cyanocyclopropyl)methyl)-1H-pyrazol-4-yl)-3-fluorophenyl)pyrazolo[1,5-a]pyrazin-4-yl)cyclohexane-1-carbonitrile]	0.1 to 100	0.1 to 100
N#CC1CC=C(c2nccn3ncc(-c4ccnc(NC5CCCC5)c4)c23)CC1 (centres unmarked) [Compound P-0074]	100 to 1000	100 to 1000
Cc1nc2ccc(-c3cnn4cccc(C#CC(C)(C)O)c34)cc2s1 [Compound P-0215, 2-methyl-4-(3-(2-methylbenzo[d]thiazol-6-yl)pyrazolo[1,5-a]pyridin-4-yl)but-3-yn-2-ol]	100 to 1000	100 to 1000
N#CC1CCC(c2nccn3ncc(-c4ccc(-n5ccnn5)cc4)c23)CC1 (centres unmarked) [Compound P-0211, 4-(3-(4-(1H-1,2,3-triazol-1-yl)phenyl)pyrazolo[1,5-a]pyrazin-4-yl)cyclohexane-1-carbonitrile]	100 to 1000	0.1 to 100
N#CC1CC=C(c2cccn3ncc(-c4ccc(-n5cccn5)cc4)c23)CC1 (centres unmarked) [Compound P-0225, 4-(3-(4-(1H-pyrazol-1-yl)phenyl)pyrazolo[1,5-a]pyridin-4-yl)cyclohex-3-ene-1-carbonitrile]	0.1 to 100	0.1 to 100
Cc1ccc(-c2cnn3ccnc(C4=CCC(C(N)=O)CC4)c23)cn1 (centres unmarked) [Compound P-0152, 4-(3-(6-methylpyridin-3-yl)pyrazolo[1,5-a]pyrazin-4-yl)cyclohex-3-ene-1-carboxamide]	0.1 to 100	100 to 1000
CC(C)(O)c1ccc(-c2cnn3ccnc(C4=CCC(C#N)CC4)c23)cc1 (centres unmarked) [Compound P-0040, 4-(3-(4-(2-hydroxypropan-2-yl)phenyl)pyrazolo[1,5-a]pyrazin-4-yl)cyclohex-3-ene-1-carbonitrile]	0.1 to 100	0.1 to 100
CC(C)(C#Cc1nccn2ncc(-c3ccc(N4CCOCC4)c(F)c3)c12)C(N)=O [Compound P-0099, 4-(3-(3-fluoro-4-morpholinophenyl)pyrazolo[1,5-a]pyrazin-4-yl)-2,2-dimethylbut-3-ynamide]	100 to 1000	0.1 to 100
CC(C)(C#Cc1cccn2ncc(-c3ccc4c(cnn4C(F)F)c3)c12)C(N)=O [Compound P-0068, 4-(3-(1-(difluoromethyl)-1H-indazol-5-yl)pyrazolo[1,5-a]pyridin-4-yl)-2,2-dimethylbut-3-ynamide]	0.1 to 100	0.1 to 100
N#CC1CC=C(c2nccn3ncc(-c4ccc5c(cnn5C(F)F)c4)c23)CC1 (centres unmarked) [Compound P-0114, 4-(3-(1-(difluoromethyl)-1H-indazol-5-yl)pyrazolo[1,5-a]pyrazin-4-yl)cyclohex-3-ene-1-carbonitrile]	0.1 to 100	0.1 to 100

The remaining lines, values ahead:

IC50 [1] [nM]	IC50 [2] [nM]	Structure (SMILES)
0.1 to 100	0.1 to 100	CC(C)(O)Cn1cc(-c2ccc(-c3cnc4[nH]ccc4c3N3CCC(C#N)CC3)cc2)cn1 [Compound P-0329, 1-(5-(4-(1-(2-hydroxy-2-methylpropyl)-1H-pyrazol-4-yl)phenyl)-1H-pyrrolo[2,3-b]pyridin-4-yl)piperidine-4-carbonitrile]
100 to 1000	100 to 1000	N#CC1CCN(c2cccn3ncc(-c4ccc(OCc5ccccc5)cc4)c23)CC1 [Compound P-0267, 1-(3-(4-(benzyloxy)phenyl)pyrazolo[1,5-a]pyridin-4-yl)piperidine-4-carbonitrile]
100 to 1000	100 to 1000	Cn1cc(C#Cc2cnc3cccc(N4CCC5(CCNC5=O)CC4)n23)cn1 [Compound P-0278, 8-(3-((1-methyl-1H-pyrazol-4-yl)ethynyl)imidazo[1,2-a]pyridin-5-yl)-2,8-diazaspiro[4.5]decan-1-one]
100 to 1000	100 to 1000	Cc1cncc(-c2ccc(-c3cnn4cccc(C#CC(C)(C)O)c34)cc2)c1 [Compound P-0231, 2-methyl-4-(3-(4-(5-methylpyridin-3-yl)phenyl)pyrazolo[1,5-a]pyridin-4-yl)but-3-yn-2-ol]
1000 to 10000	1000 to 10000	N#CC1CCN(c2cccn3ncc(-c4cccc(OCc5ccccc5)c4)c23)CC1 [Compound P-0252, 1-(3-(3-(benzyloxy)phenyl)pyrazolo[1,5-a]pyridin-4-yl)piperidine-4-carbonitrile]
0.1 to 100	0.1 to 100	N#CC1CCN(c2cccn3ncc(-c4ccc(OCC(O)CN5CCCCC5)cc4)c23)CC1 (centres unmarked) [Compound P-0263, 1-(3-(4-(2-hydroxy-3-(piperidin-1-yl)propoxy)phenyl)pyrazolo[1,5-a]pyridin-4-yl)piperidine-4-carbonitrile]
100 to 1000	100 to 1000	Cn1cc(C#Cc2cnc3cccc(N4CCC5(CC4)NCNC5=O)n23)cn1 [Compound P-0275, 8-(3-((1-methyl-1H-pyrazol-4-yl)ethynyl)imidazo[1,2-a]pyridin-5-yl)-1,3,8-triazaspiro[4.5]decan-4-one]
100 to 1000	100 to 1000	CC(C)(C)C(=O)Nc1ccc(-c2cnn3cccc(N4CCC(C#N)CC4)c23)cc1 [Compound P-0254, N-(4-(4-(4-cyanopiperidin-1-yl)pyrazolo[1,5-a]pyridin-3-yl)phenyl)pivalamide]
0.1 to 100	0.1 to 100	N#CC1CC=C(c2c(-c3ccc(-c4cnn(C(F)F)c4)cc3)cnc3[nH]ccc23)CC1 (centres unmarked) [Compound P-0270, 4-(5-(4-(1-(difluoromethyl)-1H-pyrazol-4-yl)phenyl)-1H-pyrrolo[2,3-b]pyridin-4-yl)cyclohex-3-ene-1-carbonitrile]
100 to 1000	100 to 1000	Cc1ccc2cc(-c3cnn4cccc(C#CC(C)(C)O)c34)ccc2n1 [Compound P-0281, 2-methyl-4-(3-(2-methylquinolin-6-yl)pyrazolo[1,5-a]pyridin-4-yl)but-3-yn-2-ol]
